Measured values reported in US20240240145A1, “METHODS AND COMPOSITIONS FOR GENERATING MITOCHONDRIA REPLACED LYMPHOID CELLS” (Imel Biotherapeutics, Inc., priority 2021, published 2024).

Assays:
[1] = test system: mouse NZB T cells; experiment: TaqMan SNP assay of replacement of NZB T cell mtDNA with B6 MEF mtDNA after culture with rapamycin; type: cell-based; conditions: 40 μg B6 MEF mitochondria
Procedure: Isolation and Cell Culture of Primary Mouse T lymphocytes: All the animal experiments were performed according to the animal experiment guidelines issued by the Animal Care and Use Committee of our institution (M2019-536). For mouse T lymphocytes isolation, spleens were removed from mouse after anesthetized and sacrificed. Spleens were washed with PBS (FUJIFILM Wako Pure Chemical Corp.), then mashed and filtrated to extract splenocytes. Mouse T cells were highly purified from splenocytes by immunomagnetic negative selection using EasySep mouse T cell isolation kit (Veritas, Santa Clara, CA, USA) according to the manufacturer's recommendations. Isolated mouse T cells were cultured in Advanced RPMI1640 medium supplemented with 10% FBS, 1% penicillin/streptomycin, 20 mM L-glutamine (Thermo Fisher Scientific incorporated), […] recombinant human IL-2 (PeproTech, Rocky Hill, NJ, USA), which is activated with Dynabeads mouse T-activator CD3/CD28 (Thermo Fisher Scientific incorporated). Cells were incubated at 37 °C in a humidified 5% CO2 incubator.
Mitochondrial Isolation and Transfer to Mouse T cells: Mitochondria were isolated from B6 murine embryonic fibroblasts (MEF). […] The amounts of isolated mitochondria were expressed as protein concentration using a Bio-Rad protein assay kit (Bio-Rad Laboratories, incorporated, Richmond, CA, USA). […]

[2] = test system: human GJ T cells; experiment: TaqMan SNP assay of transfer of EPC100 mitochondria to human GJ T cells cultured with rapamycin; type: cell-based; conditions: for portion of donor mtDNA detected in T cells: after 7 days, EPC100 donor mitochondria
Procedure: Isolation and Cell Culture of Human T cells: Venous heparinized blood was taken according to the standard procedures from the median cubital vein. Human peripheral blood mononuclear cells (PBMC) were isolated from human peripheral blood using density-gradient centrifugation with 1.077 g/ml percoll (GE Healthcare Life Sciences, Buckinghamshire, England). Cells were cultured in TexMACS medium (Miltenyi Biotec) supplemented with 10% fetal bovine serum, 1% penicillin/streptomycin (Thermo Fisher Scientific incorporated), […] of IL-7, and […] of IL-15 on cell culture plates coated with anti-CD3 antibody and anti-CD28 antibody (Miltenyi Biotec). Cells were incubated at 37° C. in a humidified 5% CO2 incubator.
Mitochondrial Isolation and Transfer to Human T cells: The immortalized human uterine endometrial gland-derived mesenchymal cell line, EPC100 (Japanese Collection of Research Bioresources Cell Bank, JCRB1538) was used as an exemplary donor of exogenous mitochondria for mitochondrial transfer to human primary T cells by using the same protocol as that of murine protocol.
TaqMan Single Nucleotide Polymorphism (SNP) Assay: Based upon the differences in the mitochondrial HVR1 sequences of human GJ T cells and EPC100 cells, and the mitochondrial ND1 of B6 mouse and NZB mouse, the probes and primer set forth in Tables 1 and 2 were designed, which provide sensitivity and specificity in the TaqMan SNP assay. To determine mutation ratios, we designed wild-type and mutant allele-specific TaqMan probes for the TaqMan SNP assay. The extracted DNA (1 ng) was used for quantitative PCR with the TaqMan Universal PCR Master Mix kit (Thermo Fisher Scientific Incorporated) on a CFX connect real-time system (Bio-Rad Laboratories, Incorporated) under the following conditions: 40 cycles of PCR (95° ° C. for 15 see and 60° ° C. for 1 min) after initial denaturation (95° ° C. for 10 min). […] The mtDNA copy number was estimated from the content ratio of 12S rRNA on mtDNA and ACTB (or Actb) on nuclear DNA by delta cycle threshold-based relative quantification. […]

SMILES: CO[C@H]1C[C@@H]2CC[C@@H](C)[C@@](O)(O2)C(=O)C(=O)N2CCCC[C@H]2C(=O)O[C@H]([C@H](C)C[C@@H]2CC[C@@H](O)[C@H](OC)C2)CC(=O)[C@H](C)/C=C(\C)[C@@H](O)[C@@H](OC)C(=O)[C@H](C)C[C@H](C)/C=C/C=C/C=C/1C [rapamycin]
- donor mtDNA in the recipient T cells ([1]; centrifugation and two days of rapamycin treatment (100-1000 nM), FIG. 5A): 45-80%
- donor mtDNA in the recipient T cells ([1]; day 7, rapamycin 100-1000 nM, FIG. 5B): 70-90%
- portion of donor mtDNA detected in T cells ([2]; 50 nM rapamycin): less than 40%
- portion of donor mtDNA detected in T cells ([2]; 500 nM rapamycin): approximately 50%
- mtDNA content in T cells consisting of mtDNA from EPC100 cells ([2]; human GJ T cells contacted with EPC100 donor mitochondria in the presence of rapamycin (50 to 500 nM), no mtDNA depletion, FIG. 3B): 40-50%
